Results: patent publication US7214495B2, “Screening method” (Takeda Pharmaceutical Company Limited, priority 2002, dated 2007)
Read-outs that look alike come from different tables or passages of the source.

Legend:
human GPR40 = biological target: T1, human GPR40 (Homo sapiens, UniProt O14842); test: EC50 by FLIPR calcium assay in CHO cells stably expressing human GPR40; assay type: cell-based
T1 construct: The resulting fragment (ca. 1 kb) was introduced into vector pAKKO-111, which was used for transfection of CHO cells; expressed in transfected cells
T1 sequence (O14842 whole entry, the tested form may be a part): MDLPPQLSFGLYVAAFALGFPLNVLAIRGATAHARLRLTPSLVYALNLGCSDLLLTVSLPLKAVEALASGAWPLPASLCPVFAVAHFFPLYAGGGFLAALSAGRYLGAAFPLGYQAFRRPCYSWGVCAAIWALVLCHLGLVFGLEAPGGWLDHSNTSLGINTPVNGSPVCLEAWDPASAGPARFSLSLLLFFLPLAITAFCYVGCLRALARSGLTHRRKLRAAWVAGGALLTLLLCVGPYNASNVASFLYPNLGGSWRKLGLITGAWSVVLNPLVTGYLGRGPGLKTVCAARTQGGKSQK
Experimental: (§1) For determination of EC50 values, the CHO cell lines in which human-, mouse- and rat-derived GPR40 was stably expressed were used. Unless otherwise indicated, these CHO cell lines were incubated in α-MEM medium (Invitrogen) supplemented with 10% fetal calf serum (Invitrogen).
(§2) On the day before assay, the cells incubated to almost confluent stage were rinsed with PBS (Invitrogen), then scraped in 0.05% trypsin-EDTA solution (Invitrogen) and recovered by centrifugal operation. The number of the cells obtained was counted and diluted so as to contain 3×10^5 cells/1 mL of the medium. The dilution was dispensed in a Black welled 96-well plate (Coster) in 100 μL/well, followed by incubation overnight in a CO2 incubator. To the thus prepared CHO cells, various test samples were added and the changes in intracellular calcium level in this case were measured using FLIPR (Molecular Device). In order to determine the changes in the intracellular calcium ion level on FLIPR, the cells were pre-treated by the following procedures.
(§3) First, for the purpose of adding a fluorescent dye Fluo-3 AM (DOJIN) to the cells or washing the cells immediately before the FLIPR assay, an assay buffer was prepared. A solution obtained by adding 20 mL of 1M HEPES (pH 7.4) (DOJIN) to 1000 mL of HBSS (Invitrogen) was prepared (hereinafter HBSS/HEPES solution), to which 10 mL of a solution mixture obtained by dissolving 710 mg of Probenecid (Sigma) in 5 mL of 1N NaOH and further adding 5 mL of HBSS/HEPES solution was added. The resulting solution was used as the assay buffer. Next, 50 μg of Fluo-3AM was dissolved in 21 μL of DMSO (Wako) and an equal volume of 20% Pulronic acid (Molecular Probes) was added to and mixed with the solution. The mixture was then added to 10.6 mL of the assay buffer supplemented with 105 μL of fetal calf serum to prepare a fluorescent dye solution. […], the medium for the CHO cells again plated in a Black welled 96-well plate was removed. Immediately thereafter, the fluorescent dye solution was dispensed in 100 μL each/well and the cells were incubated in a CO2 incubator for an hour so that the fluorescent dye was taken up into the cells. The cells after the incubation was washed with the assay buffer described above and set on FLIPR. […] After the pre-treatment above was made, the changes in intracellular calcium level after the addition of various test samples were measured on FLIPR.

[1] = test system: mouse pancreatic β cell line MIN6; test: Insulin secretion from MIN6 in KRBH buffer (immunoassay); assay type: cell-based; conditions: 22 mM glucose KRBH, 90 minutes
Experimental: The mouse pancreatic β cell line MIN6 incubated in a flask was scraped in PBS containing 2.5 mM EDTA and plated in a 96-well plate followed by incubation for 2 days. The medium used was the same as in EXAMPLE 24, namely, 4.5 g/l of glucose-containing Dulbecco's Modified Eagle Medium (DMEM, Invitrogen, Inc.) supplemented with 15% fetal calf serum (ThermoTrace, Inc.), 5.5 μM 2-mercaptethanol (Invitrogen, Inc.), 20 mM HEPES pH 7.3, 100 U/ml penicillin and 100 μg/ml streptomycin. The cells were washed twice with modified Krebs-Ringer bicarbonate buffer (KRBH, 116 mM NaCl, 4.7 mM KCl, 1.2 mM KH2PO4, 1.2 mM MgSO4, 2.5 mM CaCl2, 25 mM NaHCO3, 24 mM HEPES, pH 7.3), followed by preincubation at 37° C. in 5% CO2 for 30 minutes. The fatty acid diluted/prepared using the aforesaid KRBH buffer added with 22 mM glucose was added to the cells after the preincubation, followed by incubation under the conditions of 37° C. in 5% CO2 for 90 minutes. After the incubation, the supernatant of the cells was recovered and stored in a frozen state. The insulin content in the supernatant was assayed using an insulin immunoassay kit commercially available (Amersham Pharmacia, Inc.).
Based on the method of EXAMPLE 25, effects of glucose level when added with fatty acids were examined. The level of glucose, which was added to KRBH upon the addition of fatty acids, was varied to 0, 5.5, 11 and 22 mM to study the effects.
The insulin secretion enhancing activity in the m40i103-introduced MIN6 cells using HVJ Envelope VECTOR KIT GenomONE based on the method of EXAMPLE 18 was examined. The insulin secretion enhancing activity by fatty acids was examined according to the method of EXAMPLE 25.
Based on the procedures of EXAMPLE 25, an essential prerequisite of Ca^2+ ions in the extracellular fluid was examined. In preincubation and incubation with a sample, Ca^2+ ions were removed and 0.1 mM EGTA, which was a reagent for chelating Ca^2+ ions, was further added, and then the insulin secretion enhancing activity by fatty acids was examined in this case.
Based on the method of EXAMPLE 25, effects of Ca^2+ channel blocker (Nifedipine) and MAP kinase inhibitor (PD98059) were examined. In preincubation and incubation with a sample, the insulin secretion enhancing activity by fatty acids was examined when Nifedipine (10 μM) or PD98059 (50 μM) was added.
It is known that fatty acids have the property of binding to albumin. Based on the method of EXAMPLE 25, effects were examined when bovine serum albumin (BSA) was present. In preincubation and incubation with a sample, the insulin secretion activity by fatty acids was examined when 0.1% BSA was added to the buffer.

Rat GPR40 = biological target: T2, Rat GPR40 (Rattus norvegicus, UniProt Q8K3T4); test: EC50 by FLIPR calcium assay in CHO cells stably expressing rat GPR40; assay type: cell-based
T2 construct: expressed in transfected cells
T2 sequence (Q8K3T4 whole entry): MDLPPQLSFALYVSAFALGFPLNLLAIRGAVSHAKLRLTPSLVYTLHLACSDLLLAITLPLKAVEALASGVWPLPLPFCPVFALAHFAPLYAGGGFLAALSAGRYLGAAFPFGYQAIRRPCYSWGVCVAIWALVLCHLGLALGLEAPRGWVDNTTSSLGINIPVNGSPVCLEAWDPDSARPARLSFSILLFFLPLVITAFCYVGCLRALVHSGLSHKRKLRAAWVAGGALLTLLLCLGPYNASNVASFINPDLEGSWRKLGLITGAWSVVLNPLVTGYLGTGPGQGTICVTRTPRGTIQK
Experimental: as §1, §2, §3

Mouse GPR40 = biological target: T3, Mouse GPR40 (Mus musculus, UniProt Q76JU9); test: EC50 by FLIPR calcium assay in CHO cells stably expressing mouse GPR40; assay type: cell-based
T3 construct: expressed in transfected cells
T3 sequence (Q76JU9 whole entry): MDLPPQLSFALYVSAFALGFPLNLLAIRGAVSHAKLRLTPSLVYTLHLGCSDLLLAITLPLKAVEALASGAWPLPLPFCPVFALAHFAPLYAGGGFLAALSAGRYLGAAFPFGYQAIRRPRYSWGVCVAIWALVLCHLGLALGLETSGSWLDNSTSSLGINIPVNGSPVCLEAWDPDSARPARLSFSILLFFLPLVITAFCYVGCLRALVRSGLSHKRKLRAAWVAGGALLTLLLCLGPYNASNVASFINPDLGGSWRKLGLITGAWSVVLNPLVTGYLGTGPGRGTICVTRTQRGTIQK
Experimental: as §1, §2, §3

MIN6 cells = test: FLIPR intracellular calcium assay using MIN6; assay type: cell-based, mouse; conditions: 10 μM fatty acid
Experimental: Mouse pancreatic β cell line MIN6 incubated in a flask was scraped using PBS containing 2.5 mM EDTA and diluted so as to contain 3×10^5 cells/1 mL of the medium. The dilution was dispensed in a Black welled 96-well plate (Coster) in 100 μL/well, followed by incubation in a CO2 incubator for 2 days. The medium used was 4.5 g/l of glucose-containing Dulbecco's Modified Eagle Medium (DMEM, Invitrogen, Inc.) supplemented with 15% fetal calf serum (ThermoTrace, Inc.), 5.5 μM 2-mercaptethanol (Invitrogen, Inc.), 20 mM HEPES pH 7.3, 100 U/ml penicillin and 100 μg/ml streptomycin. To the thus prepared MIN6 cells, various fatty acids (10 μM) were added and the changes in intracellular calcium level in this case were measured using FLIPR (Molecular Device). The changes in the intracellular calcium ion level on FLIPR were assayed in accordance with the procedures described in EXAMPLE 24.

human-derived GPR40 = biological target: T4, human-derived GPR40 (Homo sapiens, UniProt O14842); test: Intracellular calcium change (FLIPR) in CHO-K1 cells transiently expressing GPR40; assay type: cell-based; conditions: added in 10^−5 M to 10^−6 M; no response in vector-only control cells
T4 construct: The DNA fragment encoding human GPR40 was acquired by the following PCR procedures; expressed in transfected cells; host or cells: CHO-K1 (transient, Lipofectamine)
T4 sequence (O14842 whole entry, the tested form may be a part): as the sequence (O14842 whole entry, the tested form may be a part) above
Experimental: The CHO-K1 cell line was cultured in HAM F-12 medium (Invitrogen) containing 10% fetal calf serum (Invitrogen), unless otherwise indicated. One day before transfection, 4.5×10^5 cells per 10 cm^2 were plated, followed by incubation in a CO2 incubator adjusted to a concentration of 5% CO2 at 37° C. for at least 15 hours. Using Lipofectamine reagent (Invitrogen), transfection procedures were carried out by modifications of the method attached to the reagent. When a 6-well plate was used for the incubator, the following procedures were performed. First, 2 tubes each having a 1.5 ml volume were prepared and 100 μl each of Opti-MEM-I medium (Invitrogen) was dispensed in each tube. Next, 1 μg of the expression vector was charged in one tube and in another tube, 6 μl of Lipofectamine reagent was charged, which were mixed together. The mixture was settled for 20 minutes at room temperature. To the solution, 800 μl of Opti-MEM-I medium was added and the resulting solution mixture for transfection was added to CHO-K1 cells, which had been previously washed with Opti-MEM-I medium. Then, the cells were incubated in a CO2 incubator for 6 hours. After the incubation, the cells were rinsed with PBS (Invitrogen), then scraped using 0.05% trypsin-EDTA solution (Invitrogen) and recovered by centrifugal operation. The cells obtained were counted and diluted to 5×10^4 cells per 200 μl of the medium. The dilution was dispensed onto a Black walled 96-well plate (Costar) in 200 μl each per well, followed by incubation overnight in a CO2 incubator. Various test samples were added to the CHO-K1 cells in which the receptor was transiently expressed by the transfection operation described above, whereby changes in the intracellular calcium ion level were determined using FLIPR (Molecular Device). In order to determine the changes in the intracellular calcium ion level on FLIPR, the cells were pre-treated by the following procedures. First, for the purpose of adding a fluorescent dye Fluo-3 AM (DOJIN) to the cells or washing the cells immediately before the FLIPR assay, an assay buffer was prepared. A solution obtained by adding 20 ml of 1M HEPES (pH 7.4) (DOJIN) to 1000 ml of HBSS (Invitrogen) was prepared (hereinafter HBSS/HEPES solution), to which 10 ml of a solution mixture obtained by dissolving 710 mg of Probenecid (Sigma) in 5 ml of 1N NaOH and further adding 5 ml of HBSS/HEPES solution was added. The resulting solution was used as the assay buffer. Next, 50 μg of Fluo-3AM was dissolved in 21 μl of DMSO (DOJIN) and an equal volume of 20% Pulronic acid (Molecular Probes) was added to and mixed with the solution. The mixture was then added to 10.6 ml of the assay buffer supplemented with 105 μl of fetal calf serum to prepare a fluorescent dye solution. The medium for the transfection-treated CHO-K1 cells was removed. Immediately thereafter, the fluorescent dye solution was dispensed in 100 μl each/well and the cells were incubated in a CO2 incubator for an hour so that the fluorescent dye was taken up into the cells. The cells after the incubation was washed with the assay buffer described above and set on FLIPR. A test sample added to the receptor-expressed CHO-K1 cells was prepared using the assay buffer and set on FLIPR at the same time. After various test samples were added thereto.
Following the pre-treatment above, changes in intracellular calcium level after addition of various test samples were measured on FLIPR.

[2] = intracellular calcium, FLIPR, stable CHO line
[3] = intracellular calcium, FLIPR, stable CHO line, read-out: EC50 Human GPR40
[4] = intracellular calcium, FLIPR, stable CHO line, read-out: EC50 Rat GPR40
[5] = intracellular calcium, FLIPR, stable CHO line, read-out: EC50 Mouse GPR40

| Compound | response (increase in intracellular calcium level) of GPR40-expressing CHO-K1 cells (human-derived GPR40) | EC50 (human GPR40; [3]) [µM] | EC50 (Rat GPR40; [4]) [µM] | EC50 (Mouse GPR40; [5]) [µM] | also measured |
| --- | --- | --- | --- | --- | --- |
| CCCCC/C=C\C/C=C\CCCCCCCC(=O)OC [Methyl linolate] |  |  |  |  | EC50 Human GPR40 (human GPR40; [2]): inactive; insulin secretion enhancing activity [1]: did not show any significant insulin secretion enhancing activity; EC50 Rat GPR40 (Rat GPR40; [2]): inactive; EC50 Mouse GPR40 (Mouse GPR40; [2]): inactive; intracellular Ca^2+ level in MIN6 (MIN6 cells): not observed |
| eicosadienoic acid | specifically responsive |  |  |  |  |
| eicosatrienoic acid | specifically responsive |  |  |  |  |
| CCCCCCCCCCCCCCCCCC(=O)O [Stearic acid (C18), Stearic acid] |  | > 300 | > 300 | > 300 |  |
| CC/C=C\C/C=C\C/C=C\CCCCCCCC(=O)O [α-Linolenic acid (C18:3), α-Linolenic acid] |  |  |  |  | EC50 (human GPR40): 2 ± 0.3 µM; insulin secretion enhancing activity [1]: significantly noted; EC50 (Rat GPR40): 4 ± 0.7 µM; EC50 (Mouse GPR40): 3.6 ± 0.3 µM |
| CCCCCCCCC#CCC#CCC#CCCCC(=O)O [5.8.11-eicosatriynoic acid] | specifically responsive |  |  |  |  |
| CC/C=C\C/C=C\C/C=C\C/C=C\C/C=C\CCCC(=O)O [Eicosapentaenoic acid (C20:5), Eicosapentaenoic acid] |  | 2.3 ± 0.4 | 9.8 ± 0.6 | 4.9 ± 0.8 |  |
| CCCCCCCC/C=C/CCCCCCCC(=O)O [Elaidic acid (C18:1), Elaidic acid] |  | 4.7 ± 0.4 | 11 ± 1.5 | 6.5 ± 1.5 |  |
| CCCCCCCCCC(=O)O [Capric acid (C10), Capric acid] |  | 43 ± 2.2 | > 100 | > 100 |  |
| CCCCCC#CCC#CCC#CCC#CCCCC(=O)O [5.8.11.14-eicosatetraynoic acid] | specifically responsive |  |  |  |  |
| CC(=O)O [Acetic acid (C2), Acetic acid] |  |  |  |  | EC50 Human GPR40 (human GPR40; [2]): inactive; EC50 Rat GPR40 (Rat GPR40; [2]): inactive; EC50 Mouse GPR40 (Mouse GPR40; [2]): inactive |
| CCCCCC(=O)O [Caproic acid (C6), Caproic acid] |  |  | > 300 |  | EC50 Human GPR40 (human GPR40; [2]): inactive; EC50 Mouse GPR40 (Mouse GPR40; [2]): inactive |
| CCCCCCCCCCCC(=O)O [Lauric acid (C12), Lauric acid] | specifically responsive | 5.7 ± 1.4 | 13 ± 3.3 | 5.6 ± 1.6 |  |
| docosatrienoic acid | specifically responsive |  |  |  |  |
| CCCCC/C=C\C/C=C\C/C=C\C/C=C\CCCCCC(=O)O [adrenic acid] | specifically responsive |  |  |  |  |
| CC(C)=CCCC(C)=CCCC(C)=CC(=O)O [farnesoic acid] | specifically responsive |  |  |  |  |
| CCCCCCCCCCCCCC(=O)O [Myristic acid (C14), Myristic acid] |  |  |  | 6 ± 0.8 |  |
| CCCCCCCC(=O)O [Caprylic acid (C8), Caprylic acid] |  | > 300 | > 300 |  | EC50 Mouse GPR40 (Mouse GPR40; [2]): inactive |
